Values after ≈ are worked out from the molar mass of the structure shown. Where a SMILES comes first, the peptide text is derived from it. [ ]: non-standard residue; d: D form. NMeL = CN[C@@H](CC(C)C)C(=O)O
How the values were obtained:
[1] = tested on: SMMC-7721 cells; experiment: Cell cycle analysis by PI staining and flow cytometry; format: cell-based, human; settings: 4, 8 and 16 μg/mL, 48 h
Protocol: SMMC-7721 cells with the density of about 1.5 × 10^5 were incubated with galaxamide and representative analogues (4, 8, 16 μg/mL) for 48 h. Afterwards, collected cells were washed twice with PBS and centrifugation (1000 rpm, 5 min), then fixed using 70% ethanol for 12 h at 4 °C. Ethanol was removed by centrifugation (2000 rpm, 5 min), and the cells were washed twice with PBS. Cells were then resuspended in […] PI and kept at 37 °C for 15 min. The cell cycle was analyzed by flow cytometry measuring the amount of PI-labeled DNA in fixed cells.

[2] = tested on: human hepatocellular carcinoma HepG2; format: cell-based; settings: 48 h
Protocol: (§1) Lung cancer A549, drug-resistant lung cancer A549-DPP, human hepatocellular carcinoma HepG2 and hepatocellular carcinoma SMMC-7721 cells obtained from the China cell bank of the Institute of Biochemistry and were cultured in DMEM culture medium (DMEM, Corning, NY, USA) containing 10% fetal bovine serum (FBS, Hyclone, Logan, UT, USA), 1% penicillin-streptomycin and an antifungal agent in a 5% CO2 humidified atmosphere at 37 °C. The culture medium was replaced once in a day. Trypsin digestion method was adopted for cell propagation. Upon reaching 80%–90% confluence, the cells were rinsed twice with PBS. A certain amount of 0.25% trypsin digestion solution was then added and maintained for 3–5 min at 37 °C. Afterward, DMEM culture medium containing 10% fetal bovine serum was added to terminate the digestion. The cells were then blown well to form single cell suspensions.
(§2) The cell viability was determined by measuring the ability of cells to transform MTT (Genview, Houston, TX, USA) to a purple formazan dye. The cells were seeded in 96-well tissue culture plates at 2.5 × 10^3 cells/well for 24 h. The cells were then incubated with galaxamide and its analogues for 48 h. After incubation, 20 μL/well of MTT solution (5 mg/mL phosphate buffered saline) were added and incubated for 5 h. The medium was aspirated and replaced with 100 μL/well of DMSO to dissolve the formazan salt. The color intensity of the formazan solution, which reflects the cell growth condition, was measured at 570 nm using a microplate spectrophotometer (SpectroAma™ 250, Winooski, VT, USA).

[3] = tested on: hepatocellular carcinoma SMMC-7721 cells; format: cell-based, human; settings: 48 h
Protocol: as §1, §2

[4] = tested on: drug-resistant lung cancer cell line A549/DPP; format: cell-based, human; settings: 48 h
Protocol: as §1, §2

[5] = tested on: Lung cancer cell line A549; format: cell-based, human; settings: 48 h
Protocol: as §1, §2

[6] = tested on: SMMC-7721 cells; experiment: Cell apoptotic analysis, annexin V/PI staining, flow cytometry; format: cell-based, human; settings: 4, 8 and 16 μg/mL, 48 h, annexin V/PI double staining
Protocol: The apoptotic cells were quantified using an Annexin V-FITC (Sigma-Aldrich, St. Louis, MO, USA) cell apoptosis assay kit according to instruction provided with kit. In brief, about 1.5 × 10^5 cells were plated in 6-well plates and treated with galaxamide and representative analogues (4, 8, 16 μg/mL) for 48 h. The cells were resuspended in […] binding buffer. Afterward, […] annexin V-fluorescein isothiocyanate (FITC) was added and then incubated in darkness at room temperature for 10 min. The cells were again resuspended in […] binding buffer and stained with […] PI. The prepared cells were then analyzed using a flow cytometry (Coulter Epics Elite, Miami, FL, USA). The cells in the FITC-positive and PI-negative fraction were regarded as apoptotic cells.

[7] = tested on: SMMC-7721 cells; experiment: Cell morphological observation, Hoechst33342 staining; format: cell-based, human; settings: 4, 8 and 16 μg/mL, 48 h, fluorescence microscopy
Protocol: Exponentially growing SMMC-7721 cells (1 × 10^5 cells/mL) were incubated for 48 h with 4, 8, 16 μg/mL of galaxamide and representative analogues. Apoptotic nuclear morphology was visualized by the Hoechsst33342 staining technique. Cells were fixed with 3.7% of paraformaldehyde for 10 min at room temperature and washed three times with PBS. After fixation, cells were stained using Hoechsst33342 (10 μg/mL) and incubated in the darkness for 10 min. After washing three times with PBS, cells were visualized using fluorescence microscope.

IC50 Value HepG2 [2] [µg/mL]	IC50 Value SMMC-7721 [3] [µg/mL]	IC50 Value A549-DPP [4] [µg/mL]	IC50 Value A549 [5] [µg/mL]	SMILES	cell-cycle arrest (in words) [1]	induction of apoptosis (in words) [6]	morphological changes (in words) [7]
6.41 (≈ 10.4 µM)	1.44 (≈ 2.35 µM)	12.22 (≈ 19.9 µM)	9.4 (≈ 15.3 µM)	CC(C)C[C@@H]1NC(=O)[C@H](CC(C)C)NC(=O)[C@@H](Cc2ccccc2)NC(=O)[C@H](CC(C)C)N(C)C(=O)[C@@H](CC(C)C)NC1=O [Compound 22, cyclo(D-Phe-Leu-Leu-D-Leu-N-Me-Leu)]	arresting the cell cycle in the G0/G1 phase	induced SMMC-7721 cell apoptosis in dose-dependent manner	resulted in cell detachment from cell culture plates
22.88 (≈ 37.3 µM)	6.85 (≈ 11.2 µM)	20.43 (≈ 33.3 µM)	5.18 (≈ 8.44 µM)	CC(C)C[C@@H]1NC(=O)[C@@H](Cc2ccccc2)NC(=O)[C@@H](CC(C)C)N(C)C(=O)[C@@H](CC(C)C)NC(=O)[C@@H](CC(C)C)NC1=O [Compound 25, cyclo(D-Phe-Leu-D-Leu-D-Leu-D-N-Me-Leu)]			
7.12 (≈ 11.3 µM)	6.65 (≈ 10.6 µM)	11.33 (≈ 18 µM)	4.27 (≈ 6.8 µM)	CC(C)C[C@@H]1NC(=O)[C@H](CC(C)C)N(C)C(=O)[C@@H](Cc2ccccc2)NC(=O)[C@@H](CC(C)C)N(C)C(=O)[C@H](CC(C)C)NC1=O [Compound 26, cyclo(D-Phe-N-Me-Leu-Leu-Leu-D-N-Me-Leu)]			
				CC(C)C[C@@H]1NC(=O)[C@H](CC(C)C)N(C)C(=O)[C@H](CC(C)C)NC(=O)[C@H](CC(C)C)N(C)C(=O)[C@H](CC(C)C)NC1=O [Galaxamide, galaxamide] (cyclo(LL[NMeL]L[NMeL]))	arresting the cell cycle in the G0/G1 phase		resulted in cell detachment from cell culture plates

— paper PMC5039532, “Design and Synthesis of Analogues of Marine Natural Product Galaxamide, an N-methylated Cyclic Pentapeptide, as Potential Anti-Tumor Agent in Vitro” (Marine Drugs, 2016)
